Key:
Experiment in all cases: Kinase panel study
Format in all cases: biochemical
Settings in all cases: read-out: Percentage of inhibition; for inhibition at 1 µM: 1000nM; for inhibition at 10 µM: 10000nM
MAPK1 (ERK2) = target: T1, MAPK1 (ERK2) (Homo sapiens, UniProt P28482)
T1 construct: purchased Thermo Fisher Scientific
Outline: (§1)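 ZLyte/Adapta biochemical kinase assays, standard operating procedures; % inhibition at 1 µM or 10 µM test compound; IC50 determined in panel.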

GRK7 = target: T2, GRK7 (Homo sapiens, UniProt Q8WTQ7)
T2 construct: purchased Thermo Fisher Scientific
T2 sequence (Q8WTQ7 1-553): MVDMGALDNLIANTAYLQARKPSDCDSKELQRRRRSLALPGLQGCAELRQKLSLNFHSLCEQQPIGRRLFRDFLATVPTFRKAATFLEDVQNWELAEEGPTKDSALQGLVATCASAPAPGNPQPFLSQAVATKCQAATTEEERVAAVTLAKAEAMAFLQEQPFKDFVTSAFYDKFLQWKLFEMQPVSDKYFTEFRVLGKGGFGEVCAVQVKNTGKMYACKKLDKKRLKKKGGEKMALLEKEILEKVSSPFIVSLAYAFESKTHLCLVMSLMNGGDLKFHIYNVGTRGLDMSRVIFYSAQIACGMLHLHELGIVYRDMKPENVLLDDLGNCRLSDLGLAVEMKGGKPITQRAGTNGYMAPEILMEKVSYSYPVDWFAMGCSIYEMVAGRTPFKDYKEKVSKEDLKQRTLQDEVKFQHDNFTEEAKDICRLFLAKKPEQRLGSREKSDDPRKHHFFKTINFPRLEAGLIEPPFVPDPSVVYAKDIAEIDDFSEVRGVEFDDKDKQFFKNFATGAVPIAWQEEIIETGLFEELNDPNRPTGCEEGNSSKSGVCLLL
Outline: as §1

PHKG2 = target: T3, PHKG2 (Homo sapiens, UniProt P15735)
T3 construct: purchased Thermo Fisher Scientific
T3 sequence (P15735 1-406): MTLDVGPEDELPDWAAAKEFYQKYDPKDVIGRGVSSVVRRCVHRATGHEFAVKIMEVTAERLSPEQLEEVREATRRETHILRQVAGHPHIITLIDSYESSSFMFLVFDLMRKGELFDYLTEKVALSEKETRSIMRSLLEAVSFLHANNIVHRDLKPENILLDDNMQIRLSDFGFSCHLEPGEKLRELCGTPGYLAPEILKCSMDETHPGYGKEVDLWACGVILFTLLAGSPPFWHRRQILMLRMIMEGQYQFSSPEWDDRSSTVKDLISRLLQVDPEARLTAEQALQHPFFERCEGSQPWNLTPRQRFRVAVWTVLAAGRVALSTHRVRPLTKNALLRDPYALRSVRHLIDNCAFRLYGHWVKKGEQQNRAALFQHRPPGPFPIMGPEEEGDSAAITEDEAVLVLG
Outline: as §1

EGFR (ErbB1) G719S = target: T4, EGFR (ErbB1) G719S (Homo sapiens, UniProt P00533, G719S)
T4 construct: purchased Thermo Fisher Scientific
T4 sequence (P00533 25-1210 G719S): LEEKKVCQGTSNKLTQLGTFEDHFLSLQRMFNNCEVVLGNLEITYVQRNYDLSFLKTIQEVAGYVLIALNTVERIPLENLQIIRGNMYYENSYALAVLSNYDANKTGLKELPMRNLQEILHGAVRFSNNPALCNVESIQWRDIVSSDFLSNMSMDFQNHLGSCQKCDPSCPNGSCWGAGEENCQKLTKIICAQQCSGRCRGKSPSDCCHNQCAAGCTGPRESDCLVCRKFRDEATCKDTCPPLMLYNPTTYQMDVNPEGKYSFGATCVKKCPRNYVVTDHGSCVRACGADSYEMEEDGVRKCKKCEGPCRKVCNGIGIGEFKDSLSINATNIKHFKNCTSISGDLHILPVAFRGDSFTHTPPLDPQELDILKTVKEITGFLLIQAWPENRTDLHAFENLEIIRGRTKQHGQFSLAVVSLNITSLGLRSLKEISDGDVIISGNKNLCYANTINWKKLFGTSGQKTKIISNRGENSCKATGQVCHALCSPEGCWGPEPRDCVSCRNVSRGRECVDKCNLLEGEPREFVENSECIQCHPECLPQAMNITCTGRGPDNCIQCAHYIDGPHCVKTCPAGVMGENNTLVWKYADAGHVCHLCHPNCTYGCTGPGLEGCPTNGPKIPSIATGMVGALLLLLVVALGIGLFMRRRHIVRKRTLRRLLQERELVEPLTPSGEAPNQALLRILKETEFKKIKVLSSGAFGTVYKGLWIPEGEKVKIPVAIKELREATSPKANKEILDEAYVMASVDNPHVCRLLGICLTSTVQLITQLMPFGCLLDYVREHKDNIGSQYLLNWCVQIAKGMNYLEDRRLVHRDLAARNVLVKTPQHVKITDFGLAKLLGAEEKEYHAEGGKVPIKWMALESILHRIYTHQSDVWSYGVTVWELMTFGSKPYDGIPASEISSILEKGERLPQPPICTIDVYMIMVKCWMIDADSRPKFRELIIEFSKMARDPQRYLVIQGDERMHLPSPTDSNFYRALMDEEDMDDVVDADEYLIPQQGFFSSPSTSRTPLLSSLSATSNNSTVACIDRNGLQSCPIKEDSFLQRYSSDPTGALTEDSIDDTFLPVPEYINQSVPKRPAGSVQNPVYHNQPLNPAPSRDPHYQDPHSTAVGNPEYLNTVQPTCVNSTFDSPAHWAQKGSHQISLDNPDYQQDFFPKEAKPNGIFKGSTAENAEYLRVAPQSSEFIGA
Outline: as §1

EPHA8 = target: T5, EPHA8 (Homo sapiens, UniProt P29322)
T5 construct: purchased Thermo Fisher Scientific
T5 sequence (P29322 28-1005): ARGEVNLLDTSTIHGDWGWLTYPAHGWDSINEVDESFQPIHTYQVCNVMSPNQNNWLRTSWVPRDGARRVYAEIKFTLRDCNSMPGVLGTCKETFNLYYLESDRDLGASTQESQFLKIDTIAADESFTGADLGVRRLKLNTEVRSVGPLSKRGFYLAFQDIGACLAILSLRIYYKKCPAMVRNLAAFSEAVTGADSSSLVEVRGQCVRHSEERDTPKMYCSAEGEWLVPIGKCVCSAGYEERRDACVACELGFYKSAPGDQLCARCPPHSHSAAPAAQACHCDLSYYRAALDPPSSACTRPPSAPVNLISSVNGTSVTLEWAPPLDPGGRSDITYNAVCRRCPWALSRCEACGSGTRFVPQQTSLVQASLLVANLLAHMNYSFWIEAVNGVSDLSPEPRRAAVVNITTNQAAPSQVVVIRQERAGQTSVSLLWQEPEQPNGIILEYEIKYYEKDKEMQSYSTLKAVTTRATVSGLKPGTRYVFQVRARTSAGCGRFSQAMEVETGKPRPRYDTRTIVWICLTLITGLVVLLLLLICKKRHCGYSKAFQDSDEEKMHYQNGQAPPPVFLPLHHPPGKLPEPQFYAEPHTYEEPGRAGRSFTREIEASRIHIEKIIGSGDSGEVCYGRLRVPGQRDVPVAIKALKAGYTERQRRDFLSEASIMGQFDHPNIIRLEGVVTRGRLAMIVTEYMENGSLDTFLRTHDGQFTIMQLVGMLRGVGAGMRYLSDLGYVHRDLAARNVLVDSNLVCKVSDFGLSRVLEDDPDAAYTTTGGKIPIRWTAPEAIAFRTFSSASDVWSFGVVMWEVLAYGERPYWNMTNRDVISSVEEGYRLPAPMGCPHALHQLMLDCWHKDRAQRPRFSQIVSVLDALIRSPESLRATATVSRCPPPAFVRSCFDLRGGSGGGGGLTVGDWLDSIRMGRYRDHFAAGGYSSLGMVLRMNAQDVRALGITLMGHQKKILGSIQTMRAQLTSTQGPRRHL
Outline: as §1

T1 sequence (P28482 whole entry): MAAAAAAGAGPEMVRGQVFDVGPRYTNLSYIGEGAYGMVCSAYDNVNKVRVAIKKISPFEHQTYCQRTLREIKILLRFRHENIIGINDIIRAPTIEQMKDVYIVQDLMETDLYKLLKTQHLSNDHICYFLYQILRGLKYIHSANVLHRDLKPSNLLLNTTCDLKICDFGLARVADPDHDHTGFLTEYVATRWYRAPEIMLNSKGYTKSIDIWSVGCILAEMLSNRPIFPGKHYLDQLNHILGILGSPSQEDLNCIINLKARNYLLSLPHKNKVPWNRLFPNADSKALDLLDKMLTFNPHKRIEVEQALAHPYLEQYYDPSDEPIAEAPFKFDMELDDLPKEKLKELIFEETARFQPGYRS

Compound	inhibition at 1 µM (MAPK1 (ERK2)) [%]	inhibition at 10 µM (MAPK1 (ERK2)) [%]	inhibition at 1 µM (GRK7) [%]	inhibition at 10 µM (GRK7) [%]	inhibition at 1 µM (PHKG2) [%]	inhibition at 10 µM (PHKG2) [%]	inhibition at 1 µM (EGFR (ErbB1) G719S) [%]	inhibition at 10 µM (EGFR (ErbB1) G719S) [%]	inhibition at 1 µM (EPHA8) [%]	inhibition at 10 µM (EPHA8) [%]
COc1ccc2c(c1OC)c(=O)n1c3ccc(O)cc3c3ccnc2c31 [MW01, 5-Hydroxy-10,11-dimethoxy-9H-benzo[c]indolo[3,2,1-ij][1,5]naphthyridin-9-one]	4	9	-2	0	6	8	5	14	4	21
COc1ccc2cc3c(N)nn(C(=O)c4cccc(N(C)C)c4)c3nc2c1 [MW05, (3-Amino-7-methoxypyrazolo[3,4-b]quinolin-1-yl)-[3-(dimethylamino)phenyl]methanone]	5	7	-2	5	6	-3	4	-5	-1	-9
